# Where a SMILES comes first, the peptide text is derived from it. Bridges are numbered along the chain shown (N, C = ends). [ ]: non-standard residue; d: D form. The star is where a group is joined. ξ: configuration not given here. ξNMePhe(4-NMe2) = CNC(Cc1ccc(N(C)C)cc1)C(=O)O; Picolinoyl(3-OH) = O=C(c1ncccc1O)*; ξPip(4-oxo) = O=C1CCNC(C(=O)O)C1; Phg = N[CH](C(=O)O)c1ccccc1; Abu = CC[CH](N)C(=O)O
# How the values were obtained:
# [1] = system: P. falciparum 3D7 parasites; test: P. falciparum growth inhibition assay, 1-cycle (72 h treatment), SYBR DNA staining (library screen at 2 μg/mL and dose-response); format: cell-based, Plasmodium falciparum; settings: for Pf_72h_%Growth_Rep1: replicate 1; for Pf_72h_%Growth_Rep2: replicate 2
# [2] = system: P. falciparum 3D7 parasites; test: P. falciparum growth inhibition assay, 2-cycle (120 h treatment), delayed-death screen and dose-response; format: cell-based, Plasmodium falciparum; settings: for Pf_120h_%Growth_Rep1: replicate 1; for Pf_120h_%Growth_Rep2: replicate 2
# [3] = system: T. gondii RH strain (RH-Tub-eYFP) tachyzoites; test: microbe, parasite or virus in culture; format: cell-based, Toxoplasma gondii; settings: 72 h; for Tg_72h_%Growth_Rep1: replicate 1; for Tg_72h_%Growth_Rep2: replicate 2
# [4] = P. falciparum, 72 h, parasite screen 2 μg/mL, % growth
# [5] = P. falciparum, 120 h, parasite screen 2 μg/mL, % growth
# [6] = T. gondii, parasite screen 2 μg/mL, % growth
# [7] = P. falciparum, 72 h, screen at 2 μg/mL
# [8] = P. falciparum, 120 h, screen at 2 μg/mL
# [9] = P. falciparum 3D7, 72 h, library screen at 2 μg/mL, % growth
# [10] = P. falciparum 3D7, 120 h, library screen at 2 μg/mL, % growth
# [11] = T. gondii RH, library screen at 2 μg/mL, % growth
Compound,"Pf_72h_%Growth_Rep1 [1, 4] [%]","Pf_72h_%Growth_Rep2 [1, 4] [%]","Pf_120h_%Growth_Rep1 [2, 5] [%]","Pf_120h_%Growth_Rep2 [2, 5] [%]","Tg_72h_%Growth_Rep1 [3, 6] [%]","Tg_72h_%Growth_Rep2 [3, 6] [%]","Pf_72h_%Growth_Rep1 [1, 7] [%]","Pf_72h_%Growth_Rep2 [1, 7] [%]","Pf_120h_%Growth_Rep1 [2, 8] [%]","Pf_120h_%Growth_Rep2 [2, 8] [%]","Tg_72h_%Growth_Rep1 ([3]; T. gondii, screen at 2 μg/mL) [%]","Tg_72h_%Growth_Rep2 ([3]; T. gondii, screen at 2 μg/mL) [%]",also measured
CC(=O)N[C@H]1[C@H](O[C@@H]2c3ccc(c(Cl)c3)Oc3cc4cc(c3O[C@@H]3O[C@H](CO)[C@@H](O)[C@H](O)[C@H]3NC(=O)CCCCCCC(C)C)Oc3ccc(cc3Cl)C[C@H]3NC(=O)[C@H](N)c5ccc(O)c(c5)Oc5cc(O)cc(c5)[C@H](NC3=O)C(=O)N[C@H]4C(=O)N[C@H]3C(=O)N[C@@H]2C(=O)N[C@H](C(=O)O)c2cc(O)cc(O[C@H]4O[C@H](CO)[C@@H](O)[C@H](O)[C@@H]4O)c2-c2cc3ccc2O)O[C@H](CO)[C@@H](O)[C@@H]1O [Teicoplanin A2-2],72.71,85.08,148.39,93.23,90.69,106.25,–,–,–,–,–,–,–
CC(=O)O[C@@H]1CC[C@@]2(C)[C@@H](CC[C@@H](C)[C@]23Cc2c(O)cc(CO)c(C=O)c2O3)C1(C)C [Stachybotrysin B],81.92,82.33,161.09,88.10,84.36,101.19,–,–,–,–,–,–,–
Cc1cc(=O)c2c(o1)O[C@@]1(C)CC[C@@H]3[C@@]4(C)CC[C@H](O)C(C)(C)[C@@H]4CC[C@@]3(C)[C@@H]1C2 [Chevalone E],–,–,–,–,–,–,103.28,92.51,162.52,100.96,83.71,88.30,–
Pyripyropene A,79.94,110.00,67.48,119.28,125.43,86.00,–,–,–,–,–,–,–
O=C1C=CC(=O)c2c(O)cccc21 [BIA-J1739],–,–,–,–,–,–,–,–,–,–,–,–,"Pf_72h_%Growth_Rep1 [1, 9]: 80.59%; Pf_72h_%Growth_Rep2 [1, 9]: 97.69%; Pf_120h_%Growth_Rep1 [2, 10]: 84.54%; Pf_120h_%Growth_Rep2 [2, 10]: 95.25%; Tg_72h_%Growth_Rep1 [3, 11]: 123.29%; Tg_72h_%Growth_Rep2 [3, 11]: 97.98%"
CCC1NC(=O)C(NC(=O)c2ncccc2O)C(C)OC(=O)C(c2ccccc2)NC(=O)C2CC(=O)CCN2C(=O)C(Cc2ccc(N(C)C)cc2)N(C)C(=O)C2CCCN2C1=O (stereo not drawn) [Virginiamycin B] ({Picolinoyl(3-OH)}-T[Abu]P[ξNMePhe(4-NMe2)][ξPip(4-oxo)][Phg]; ester 1-C; configuration not given here),–,–,–,–,–,–,73.90,82.34,152.31,75.63,93.06,114.46,–
CC(C)(O)[C@H]1O[C@H]2CC[C@@]3(C)[C@@](O)(CC[C@H]4Cc5c([nH]c6ccccc56)[C@@]43C)[C@]23O[C@@H]3[C@@H]1O [Terpendole I],–,–,–,–,–,–,66.72,80.63,141.22,87.55,89.20,95.24,–
CC[C@@H](O)[C@@](C)(O)[C@@H]1OC(=O)[C@H](C)[C@@H](O[C@H]2C[C@@](C)(OC)[C@@H](O)[C@H](C)O2)[C@H](C)[C@@H](O[C@@H]2O[C@H](C)C[C@H](N(C)C)[C@H]2O)[C@@]2(C)CC(C)=C(O2)[C@@H]1C [Pseudoerythromycin A enol ether],72.76,82.73,72.95,110.79,127.77,87.62,–,–,–,–,–,–,–
COc1ccc2c(c1OC)C(=O)OC2C1c2cc3c(cc2CCN1C)OCO3 (stereo not drawn) [BIA-H1954],–,–,–,–,–,–,–,–,–,–,–,–,"Pf_72h_%Growth_Rep1 [1, 9]: 81.78%; Pf_72h_%Growth_Rep2 [1, 9]: 87.48%; Pf_120h_%Growth_Rep1 [2, 10]: 145.49%; Pf_120h_%Growth_Rep2 [2, 10]: 80.33%; Tg_72h_%Growth_Rep1 [3, 11]: 92.88%; Tg_72h_%Growth_Rep2 [3, 11]: 95.07%"
